For assay [1], the target named is T1, μ-opioid receptor (Homo sapiens (Human), UniProt P35372). Kind of assay: μ-opioid receptor [35S]GTPγS functional assay (U-2 OS). It is filed as biochemical. To be noted: for Emax: U2OS, GTPγS, relative to DAMGO. The procedure:
(§1) [^35S]GTPγS functional assays were conducted using freshly thawed μ-receptor membranes prepared in-house from a cell line expressing recombinant μ opioid receptor in a HEK-293, CHO or U-2 OS cell background, or purchased from a commercial source (Perkin Elmer, Shelton, Conn.; or DiscovRx, Fremont, Calif.). Assay reactions were prepared by sequentially adding the following reagents to binding buffer (100 mM NaCl, 10 mM MgCl2, 20 mM HEPES, pH 7.4) on ice (final concentrations indicated): membrane protein (0.026 mg/mL), saponin ([…]), GDP ([…]) and [^35S]GTPγS (0.20 nM; Perkin Elmer, Shelton, Conn.). The prepared membrane solution (190 μl/well) was transferred to 96-shallow well polypropylene plates containing 10 μl of 20× concentrated stock solutions of the agonist [D-Ala^2, N-methyl-Phe^4 Gly-ol^5]-enkephalin (DAMGO) prepared in dimethyl sulfoxide (DMSO). Plates were incubated for […] at about 25° C. with shaking. Reactions were terminated by rapid filtration onto 96-well Unifilter GF/B filter plates (Perkin Elmer, Shelton, Conn.) using a 96-well tissue harvester (Perkin Elmer, Shelton, Conn.) followed by three filtration washes with 200 μl of ice-cold wash buffer (10 mM NaH2PO4, 10 mM Na2HPO4, pH 7.4). Filter plates were subsequently dried at 50° C. for 2-3 hours. BetaScint scintillation cocktail (Perkin Elmer, Shelton, Conn.) was added (50 μl/well) and plates were counted using a Packard Top-Count for 1 min/well. Data were analyzed using the sigmoidal dose-response curve fitting functions in GraphPad PRISM v. 3.0, or an in-house function for non-linear, sigmoidal dose-response curve-fitting.
(§2) μ GTP EC50 is the concentration of a compound providing 50% of the maximal response for the compound at a μ-opioid receptor.
(§3) μ GTP Emax (%) is the maximal effect elicited by a compound relative to the effect elicited by DAMGO, a standard agonist. Generally, the μ GTP Emax (%) value measures the efficacy of a compound to treat or prevent pain or other Conditions.
(§4) In TABLE 4, activity response of certain Compounds of the Invention to the μ- and κ-opioid receptors was determined as described above for functional assays using U-2 OS cells.

For assay [2], the target named is T1, μ-opioid receptor. Kind of assay: μ-opioid receptor [35S]GTPγS functional assay (HEK). The format is biochemical. To be noted: for Emax: HEK, GTPγS, relative to DAMGO. The procedure: as §1, §2, §3
(§5) In TABLE 3, activity response of certain Compounds of the Invention to the μ- and κ-opioid receptors was determined as described above for functional assays using HEK cells.
(In general: Binding of GTPγS marks nucleotide exchange on a G protein.)

Assay [3] deals with T2, κ opioid receptor (Homo sapiens (Human), UniProt P41145). The assay is described as follows: κ-opioid receptor [35S]GTPγS functional assay (U-2 OS). It is filed as biochemical. To be noted: for Emax: U2OS, GTPγS, relative to U69,593. How it is done: (§6) Functional [^35S]GTPγS binding assays were conducted as follows. K opioid receptor membrane solution was prepared by sequentially adding final concentrations of 0.026 μg/μl membrane protein (in-house), 10 μg/mL saponin, 3 μM GDP and 0.20 nM [^35S]GTPγS to binding buffer (100 mM NaCl, 10 mM MgCl2, 20 mM HEPES, pH 7.4) on ice. The prepared membrane solution (190 μl/well) was transferred to 96-shallow well polypropylene plates containing 10 μl of 20× concentrated stock solutions of agonist prepared in DMSO. Plates were incubated for 30 min at a temperature of about 25° C. with shaking. Reactions were terminated by rapid filtration onto 96-well Unifilter GF/B filter plates (Perkin Elmer, Shelton, Conn.) using a 96-well tissue harvester (Packard) and followed by three filtration washes with 200 μl ice-cold binding buffer (10 mM NaH2PO4, 10 mM Na2HPO4, pH 7.4). Filter plates were subsequently dried at 50° C. for 2-3 hours. Fifty μl/well scintillation cocktail (Perkin Elmer, Shelton, Conn.) was added and plates were counted in a Packard Top-Count for 1 min/well.
(§7) GTP EC50 is the concentration of a compound providing 50% of the maximal response for the compound at a κ receptor.
(§8) κ GTP Emax (%) is the maximal effect elicited by a compound relative to the effect elicited by U69,593.
as §4

Assay [4] has as its target T2, κ opioid receptor. Kind of assay: κ-opioid receptor [35S]GTPγS functional assay (HEK). It is filed as biochemical. To be noted: for Emax: HEK, GTPγS, relative to U69,593. The procedure: as §6, §7, §8, §5
Assay [5] concerns the target T1, μ-opioid receptor. The assay is described as follows: μ-opioid receptor radioligand dose-displacement binding assay (HEK). The note with it: HEK cells; [3H]-diprenorphine. How it is done: Radioligand dose-displacement binding assays for μ-opioid receptors used 0.3 nM [^3H]-diprenorphine (Perkin Elmer, Shelton, Conn.), with […] membrane protein/well in a final volume of 500 μl binding buffer (10 mM MgCl2, 1 mM EDTA, 5% DMSO, 50 mM HEPES, pH 7.4). Reactions were carried out in the absence or presence of increasing concentrations of unlabeled naloxone. All reactions were conducted in 96-deep well polypropylene plates for 2 hours at room temperature. Binding reactions were terminated by rapid filtration onto 96-well Unifilter GF/C filter plates (Perkin Elmer, Shelton, Conn.), presoaked in 0.5% polyethylenimine using a 96-well tissue harvester (Perkin Elmer, Shelton, Conn.) followed by performing three filtration washes with 500 μl of ice-cold binding buffer. Filter plates were subsequently dried at 50° C. for 2-3 hours. BetaScint scintillation cocktail (Perkin Elmer, Shelton, Conn.) was added (50 μl/well), and plates were counted using a Packard Top-Count for 1 min/well. The data were analyzed using the one-site competition curve fitting functions in GraphPad PRISM™ v. 3.0 or higher (San Diego, Calif.), or an in-house function for one-site competition curve-fitting.
(§9) In TABLE 2, binding affinity of certain Compounds of the Invention to the μ- and κ-opioid receptors was determined as described above using HEK cells.

Assay [6] has as its target T2, κ opioid receptor. The assay is described as follows: κ-opioid receptor radioligand dose-displacement binding assay (HEK). To be noted: HEK cells; [3H]-U69,593. The procedure: Membranes from recombinantHEK-293 cells, CHO or U-2 OS cells expressing the recombinant human κ opioid receptor (κ) were prepared by lysing cells in ice cold hypotonic buffer (2.5 mM MgCl2, 50 mM HEPES, pH 7.4) (10 mL/10 cm dish) followed by homogenization with a tissue grinder/Teflon pestle. Membranes were collected by centrifugation at 30,000×g for 15 min at 4° C. and pellets were resuspended in hypotonic buffer to a final concentration of 1-3 mg/mL. Protein concentrations were determined using the BioRad protein assay reagent with bovine serum albumen as standard. Aliquots of κ receptor membranes were stored at −80° C.
Radioligand dose displacement assays used 0.4 nM [^3H]-U69,593 (GE Healthcare, Piscataway, N.J.; 40 Ci/mmole) with 15 μg membrane protein (recombinant κ opioid receptor expressed in HEK 293 cells; in-house prep) in a final volume of 200 μl binding buffer (5% DMSO, 50 mM Trizma base, pH 7.4). Non-specific binding was determined in the presence of 10 μM unlabeled naloxone or U69,593. All reactions were performed in 96-well polypropylene plates for 1 hour at a temperature of about 25° C. Binding reactions were terminated by rapid filtration onto 96-well Unifilter GF/C filter plates (Perkin Elmer, Shelton, Conn.) presoaked in 0.5% polyethylenimine (Sigma). Harvesting was performed using a 96-well tissue harvester (Perkin Elmer, Shelton, Conn.) followed by five filtration washes with 200 μl ice-cold binding buffer. Filter plates were subsequently dried at 50° C. for 1-2 hours. Fifty μl/well scintillation cocktail (Perkin Elmer, Shelton, Conn.) was added and plates were counted in a Packard Top-Count for 1 min/well.
as §9

On to `COc1ccc2c(c1)[C@]13CCN(CC4CC4)[C@H](C2)[C@]1(O)CC1=CC(=O)NC1C3` (stereo partly drawn) [Compound 8, (6R,6aS,11aR)-14-(cyclopropylmethyl)-6a-hydroxy-2-methoxy-5,6,6a,7,10a,11-hexahydro-6,11a-(epiminoethano)naphtho[2,1-f]indol-9(10H)-one], for which the half-maximal effective concentration (EC50) (usually the midpoint of the concentration-response curve) on μ-opioid receptor [1] is 846 ± 72.5 nM; on μ-opioid receptor [2], more than 20000 nM; on κ opioid receptor [3] it was 585 ± 29.3 nM; on κ opioid receptor [4], 1750 ± 197 nM. The Emax – broadly, the size of the effect at its maximum, as opposed to the concentration needed – at μ-opioid receptor [1] is 49 ± 1%; at μ-opioid receptor [2], -0.33 ± 0.67%; at κ opioid receptor [3] it was 115 ± 3.53%; on κ opioid receptor [4], 66.7 ± 1.33%.

For `O=C1C=C2C[C@@]3(O)[C@H]4Cc5ccc(O)cc5[C@@]3(CCN4CC3CC3)CC2N1` (stereo partly drawn) [Compound 9, (6R,6aS,11aR)-14-(cyclopropylmethyl)-2,6a-dihydroxy-5,6,6a,7,10a,11-hexahydro-6,11a-(epiminoethano)naphtho[2,1-f]indol-9(10H)-one], the inhibition constant Ki (in general, the equilibrium dissociation constant of an inhibitor or competing ligand from its target) on μ-opioid receptor [5] was 2.34 ± 0.27 nM; at κ opioid receptor [6], 2.16 ± 0.45 nM. Further, the 50% effective concentration (EC50) is 6.35 ± 1.74 nM at μ-opioid receptor [1], more than 20000 nM on μ-opioid receptor [2], 4.96 ± 0.59 nM on κ opioid receptor [3] and 7.24 ± 1.69 nM at κ opioid receptor [4]. For the same compound, the Emax worked out at 19.5 ± 0.29% at μ-opioid receptor [1], 1% at μ-opioid receptor [2], 87.5 ± 6.44% on κ opioid receptor [3] and 27.2 ± 3.45% on κ opioid receptor [4].

For `CCN1C(=O)C[C@@H]2C[C@@]3(O)[C@H]4Cc5ccc(O)cc5[C@@]3(CCN4CC3CC3)C[C@@H]21` [Compound 16, (6R,6aS,7aS,10aS,11aR)-14-(cyclopropylmethyl)-10-ethyl-2,6a-dihydroxy-5,6,6a,7,7a,8,10a,11-octahydro-6,11a-(epiminoethano)-naphtho[2,1-f]indol-9(10H)-one], on μ-opioid receptor [2], the midpoint of the response, the EC50, lay at 4.18 ± 0.61 nM and the Emax is 20 ± 0.91%. The compound further gave an inhibition constant (Ki) on κ opioid receptor [6] of 0.31 ± 0.085 nM. On κ opioid receptor [4], the concentration giving a half-maximal response (EC50) was found to be 0.66 ± 0.059 nM and the Emax turned out to be 49.7 ± 2.19%.

Consider `O=C1C[C@@H]2C[C@@]3(O)[C@H]4Cc5ccc(O)cc5[C@@]3(CCN4CCc3ccccc3)C[C@@H]2N1` [Compound 5, (6R,6aS,7aS,10aS,11aR)-2,6a-dihydroxy-14-phenethyl-5,6,6a,7,7a,8,10a,11-octahydro-6,11a-(epiminoethano)naphtho[2,1-f]indol-9(10H)-one], for which, on μ-opioid receptor [2], the concentration giving a half-maximal response (EC50) came out at 1.94 ± 0.073 nM and the Emax came to 99.7 ± 2.03%. Further, affinity at κ opioid receptor [6] was put at a Ki of 4.03 ± 0.7 nM. On κ opioid receptor [4], the EC50 was more than 20000 nM and the Emax was -0.25 ± 0.75%.

Turning to `O=C1C[C@@H]2C[C@@]3(O)[C@H]4Cc5ccc(O)cc5[C@@]3(CCN4CC3CC3)C[C@@H]2N1` [Compound 10, (6R,6aS,7aS,10aS,11aR)-14-(cyclopropylmethyl)-2,6a-dihydroxy-5,6,6a,7,7a,8,10a,11-octahydro-6,11a-(epiminoethano)naphtho[2,1-f]indol-9(10H)-one], the values for the inhibition constant (Ki) on μ-opioid receptor [5] and at κ opioid receptor [6] were 0.8 ± 0.1 nM and 0.16 ± 0.017 nM, respectively. For the same compound, the EC50 at μ-opioid receptor [1] was 1.59 ± 0.19 nM; at μ-opioid receptor [2] it was more than 20000 nM; at κ opioid receptor [3], 0.42 ± 0.027 nM; at κ opioid receptor [4] it was 1 ± 0.18 nM. The Emax at μ-opioid receptor [1] was 46 ± 1%; at μ-opioid receptor [2], 0%; at κ opioid receptor [3], 112 ± 2.65%; at κ opioid receptor [4] it was 76.2 ± 5.39%.

As for `COc1ccc2c(c1)[C@]13CCN(CC4CC4)[C@H](C2)[C@]1(O)C[C@H]1CC(=O)N[C@H]1C3` [Compound 1, (6R,6aS,7aS,10aS,11aR)-14-(cyclopropylmethyl)-6a-hydroxy-2-methoxy-5,6,6a,7,7a,8,10a,11-octahydro-6,11a-(epiminoethano)naphtho[2,1-f]indol-9(10H)-one], the Ki at μ-opioid receptor [5] is 533 ± 170 nM; at κ opioid receptor [6] it was 12.4 ± 3.09 nM. In addition, the 50% effective concentration (EC50) amounted to 223 ± 42 nM on μ-opioid receptor [1], 821 ± 190 nM at μ-opioid receptor [2], 66.9 ± 3.47 nM at κ opioid receptor [3] and 1770 ± 713 nM on κ opioid receptor [4]. In addition, the Emax on μ-opioid receptor [1] amounted to 81.7 ± 3.33%; on μ-opioid receptor [2], 25.8 ± 0.48%; on κ opioid receptor [3], 99 ± 1.53%; on κ opioid receptor [4] it was 77 ± 8.19%.

(Values after patent publication US10435406B2, “6,7-cyclicmorphinan derivatives and use thereof” (Purdue Pharma L.P., priority 2014, dated 2019).)
